Laboratory results as given in the supplement of paper PMC10307832.

Legend:
Test in all cases: relative viability (nuclei count vs DMSO), 5 days (fraction); higher = more cells survive
NCI-H1793 = system: NCI-H1793
Summary of the method: (§1)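 Lung cancer cell lines in 1536-well plates got either a single drug or a fixed anchor-drug dose together with five library-drug doses (not always all listed) in √10 steps, by pin tool, on the day after seeding. Nuclei were counted after 5 days, and relative viability is the treated-to-vehicle ratio of nuclei counts. Values are medians of duplicate plates.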

NCI-H1944 = system: NCI-H1944
Summary of the method: as §1

NCI-H2087 = system: NCI-H2087
Summary of the method: as §1

NCI-H2228 = system: NCI-H2228
Summary of the method: as §1

NCI-H2405 = system: NCI-H2405
Summary of the method: as §1

NCI-H3122 = system: NCI-H3122
Summary of the method: as §1

NCI-H322M = system: NCI-H322M
Summary of the method: as §1

NCI-H647 = system: NCI-H647
Summary of the method: as §1

NCI-H727 = system: NCI-H727
Summary of the method: as §1

RERF-LC-KJ = system: RERF-LC-KJ
Summary of the method: as §1

SK-LU-1 = system: SK-LU-1
Summary of the method: as §1

Which relative viability (NCI-H1793; first compound 0.005 µM) does the source give for COc1cc2nccc(Oc3ccc(NC(=O)Nc4cc(C)on4)c(Cl)c3)c2cc1OC [Tivozanib] + O=C(c1cc(Cc2n[nH]c(=O)c3ccccc23)ccc1F)N1CCN(C(=O)C2CC2)CC1 [Olaparib] (partner 8 µM) here?
The relative viability was 0.804.

And the relative viability (NCI-H1793; first compound 0.01581 µM)?
The relative viability was 0.971.

And the relative viability (NCI-H1793; first compound 0.05 µM)?
The relative viability was 1.03.

And the relative viability (NCI-H1793; first compound 0.5 µM)?
Its relative viability is 0.879.

And the relative viability (NCI-H1944; first compound 0.005 µM)?
Its relative viability is 0.331.

And the relative viability (NCI-H1944; first compound 0.01581 µM)?
The relative viability was 0.395.

And the relative viability (NCI-H1944; first compound 0.05 µM)?
Its relative viability is 0.416.

And the relative viability (NCI-H1944; first compound 0.1581 µM)?
Its relative viability is 0.406.

What about the relative viability (NCI-H1944; first compound 0.5 µM) of the same compound?
Its relative viability is 0.376.

And the relative viability (NCI-H2087; first compound 0.005 µM)?
Its relative viability is 0.542.

What about the relative viability (NCI-H2087; first compound 0.01581 µM) of the same compound?
Its relative viability is 0.51.

And the relative viability (NCI-H2087; first compound 0.05 µM)?
Its relative viability is 0.652.

And the relative viability (NCI-H2087; first compound 0.1581 µM)?
The relative viability was 0.683.

And the relative viability (NCI-H2087; first compound 0.5 µM)?
The relative viability was 0.713.

What about the relative viability (NCI-H2228; first compound 0.005 µM) of the same compound?
The relative viability was 0.669.

What about the relative viability (NCI-H2228; first compound 0.01581 µM) of the same compound?
The relative viability was 0.956.

And the relative viability (NCI-H2228; first compound 0.05 µM)?
The relative viability was 0.771.

What about the relative viability (NCI-H2228; first compound 0.1581 µM) of the same compound?
Its relative viability is 0.644.

What about the relative viability (NCI-H2228; first compound 0.5 µM) of the same compound?
The relative viability was 0.723.

What about the relative viability (NCI-H2405; first compound 0.005 µM) of the same compound?
Its relative viability is 0.831.

What about the relative viability (NCI-H2405; first compound 0.01581 µM) of the same compound?
Its relative viability is 0.95.

And the relative viability (NCI-H2405; first compound 0.05 µM)?
Its relative viability is 0.916.

And the relative viability (NCI-H2405; first compound 0.1581 µM)?
Its relative viability is 1.01.

What about the relative viability (NCI-H2405; first compound 0.5 µM) of the same compound?
The relative viability was 0.669.

And the relative viability (NCI-H3122; first compound 0.005 µM)?
Its relative viability is 0.616.

And the relative viability (NCI-H3122; first compound 0.01581 µM)?
The relative viability was 0.641.

And the relative viability (NCI-H3122; first compound 0.05 µM)?
The relative viability was 0.768.

And the relative viability (NCI-H3122; first compound 0.1581 µM)?
Its relative viability is 0.684.

And the relative viability (NCI-H3122; first compound 0.5 µM)?
The relative viability was 0.606.

And the relative viability (NCI-H322M; first compound 0.005 µM)?
The relative viability was 0.656.

And the relative viability (NCI-H322M; first compound 0.01581 µM)?
Its relative viability is 0.811.

And the relative viability (NCI-H322M; first compound 0.05 µM)?
The relative viability was 0.755.

And the relative viability (NCI-H322M; first compound 0.1581 µM)?
The relative viability was 0.72.

What about the relative viability (NCI-H322M; first compound 0.5 µM) of the same compound?
Its relative viability is 0.714.

And the relative viability (NCI-H647; first compound 0.005 µM)?
Its relative viability is 0.505.

What about the relative viability (NCI-H647; first compound 0.01581 µM) of the same compound?
Its relative viability is 0.529.

And the relative viability (NCI-H647; first compound 0.05 µM)?
The relative viability was 0.63.

What about the relative viability (NCI-H647; first compound 0.1581 µM) of the same compound?
The relative viability was 0.56.

What about the relative viability (NCI-H647; first compound 0.5 µM) of the same compound?
Its relative viability is 0.437.

What about the relative viability (NCI-H727; first compound 0.005 µM) of the same compound?
Its relative viability is 0.678.

What about the relative viability (NCI-H727; first compound 0.01581 µM) of the same compound?
Its relative viability is 0.787.

And the relative viability (NCI-H727; first compound 0.05 µM)?
The relative viability was 0.823.

What about the relative viability (NCI-H727; first compound 0.1581 µM) of the same compound?
The relative viability was 0.786.

What about the relative viability (NCI-H727; first compound 0.5 µM) of the same compound?
The relative viability was 0.74.

What about the relative viability (RERF-LC-KJ; first compound 0.005 µM) of the same compound?
Its relative viability is 0.97.

What about the relative viability (RERF-LC-KJ; first compound 0.01581 µM) of the same compound?
Its relative viability is 0.954.

What about the relative viability (RERF-LC-KJ; first compound 0.05 µM) of the same compound?
The relative viability was 0.974.

What about the relative viability (RERF-LC-KJ; first compound 0.1581 µM) of the same compound?
Its relative viability is 0.929.

What about the relative viability (RERF-LC-KJ; first compound 0.5 µM) of the same compound?
The relative viability was 0.875.

And the relative viability (SK-LU-1; first compound 0.005 µM)?
The relative viability was 0.465.

And the relative viability (SK-LU-1; first compound 0.01581 µM)?
Its relative viability is 0.474.

What about the relative viability (SK-LU-1; first compound 0.05 µM) of the same compound?
The relative viability was 0.528.

And the relative viability (SK-LU-1; first compound 0.1581 µM)?
Its relative viability is 0.384.

And the relative viability (SK-LU-1; first compound 0.5 µM)?
Its relative viability is 0.464.
